Earlier results as cited in patent publication US20150079197A1, “MEDICINE COMPRISING COMBINATION OF GENERAL ANESTHETIC AND HYDROGEN” (MARUISHI PHARMACEUTICAL CO., LTD., priority 2012, published 2015).

Key:
degenerated neurons = settings: neonatal rats, Non Patent Literature 30

Row | neurodegeneration (degenerated neurons) | neurodegeneration (developing brains; alone) | Compound | increase in the apoptosis level in the cortex (developing brains; cortex, as compared with the control) | increase in the apoptosis level in the hippocampus (developing brains; hippocampus)
1 | dose-dependent neurodegeneration |  | FC(F)OC(Cl)C(F)(F)F (stereo not shown) [isoflurane] | 4 fold | 4 fold
2 |  | no neurodegeneration | [N-]=[N+]=O [nitrous oxide] |  | 
